Tests used:
Type in all cases: biochemical
kinases [1] = target: kinases (Homo sapiens, UniProt O00444); details: PLK4 FRET-Lantha SP; Test Conc(μM) 1
kinases [2] = target: kinases (Homo sapiens, UniProt O43318); details: MAP3K7/MAP3K7IP1 Lantha SP; Test Conc(μM) 1
kinases [3] = target: kinases (Homo sapiens, UniProt P04626); details: ERBB2 (HER2) *Mn* Z-Lyte SP; Test Conc(μM):ATP Conc(μM) 1:10
kinases [4] = target: kinases (Homo sapiens, UniProt P06239); details: LCK FRET-Z-Lyte SP; Test Conc(μM):ATP Conc(μM) 1:50
kinases [5] = target: kinases (Homo sapiens, UniProt P08581); details: MET (cMet) FRET-Z-Lyte SP; Test Conc(μM):ATP Conc(μM) 1:50
kinases [6] = target: kinases (Homo sapiens, UniProt P27448); details: MARK3 FRET-Z-Lyte SP; Test Conc(μM):ATP Conc(μM) 1:5
kinases [7] = target: kinases (Homo sapiens, UniProt P29320); details: EPHA3 FRET-Lantha SP; Test Conc(μM) 1
kinases [8] = target: kinases (Homo sapiens, UniProt P42345); details: FRAP1 (mTOR) *Mn* Z-Lyte SP; Test Conc(μM):ATP Conc(μM) 1:10
kinases [9] = target: kinases (Homo sapiens, UniProt P48426); details: PIP4K2A FRET-Adapta SP; Test Conc(μM):ATP Conc(μM) 1:10
kinases [10] = target: kinases (Homo sapiens, UniProt P50613); details: CDK7/cyclin H/MNAT1 Adapta SP; Test Conc(μM):ATP Conc(μM) 1:150
kinases [11] = target: kinases (Homo sapiens, UniProt P53355); details: DAPK1 FRET-Adapta SP; Test Conc(μM):ATP Conc(μM) 1:5
kinases [12] = target: kinases (Homo sapiens, UniProt P54764); details: EPHA4 FRET-Z-Lyte SP; Test Conc(μM):ATP Conc(μM) 1:100
kinases [13] = target: kinases (Homo sapiens, UniProt Q02763); details: TEK (Tie2) *Mn* FRET-Z-Lyte SP; Test Conc(μM):ATP Conc(μM) 1:10
kinases [14] = target: kinases (Homo sapiens, UniProt Q08345); details: DDR1 FRET-Lantha SP; Test Conc(μM) 1
kinases [15] = target: kinases (Homo sapiens, UniProt Q13188); details: STK3 (MST2) FRET-Z-Lyte SP; Test Conc(μM):ATP Conc(μM) 1:50
kinases [16] = target: kinases (Homo sapiens, UniProt Q15349); details: RPS6KA2 (RSK3) FRET-Z-Lyte SP; Test Conc(μM):ATP Conc(μM) 1:10
kinases [17] = target: kinases (Homo sapiens, UniProt Q52WX2); details: SBK1 FRET-Z-Lyte SP; Test Conc(μM):ATP Conc(μM) 1:5
kinases [18] = target: kinases (Homo sapiens, UniProt Q56UN5); details: MAP3K19 (YSK4) FRET-Z-Lyte SP; Test Conc(μM):ATP Conc(μM) 1:5
kinases [19] = target: kinases (Homo sapiens, UniProt Q7KZI7); details: MARK2 FRET-Z-Lyte SP; Test Conc(μM):ATP Conc(μM) 1:10
kinases [20] = target: kinases (Homo sapiens, UniProt Q7L7X3); details: TAOK1 FRET-Lantha SP; Test Conc(μM) 1
kinases [21] = target: kinases (Homo sapiens, UniProt Q86SG6); details: NEK8 FRET-Lantha SP; Test Conc(μM) 1
kinases [22] = target: kinases (Homo sapiens, UniProt Q96L34); details: MARK4 FRET-Z-Lyte SP; Test Conc(μM):ATP Conc(μM) 1:10
kinases [23] = target: kinases (Homo sapiens, UniProt Q9H0K1); details: SNF1LK2 FRET-Z-Lyte SP; Test Conc(μM):ATP Conc(μM) 1:50
kinases [24] = target: kinases (Homo sapiens, UniProt Q9H4B4); details: PLK3 FRET-Z-Lyte SP; Test Conc(μM):ATP Conc(μM) 1:50
kinases [25] = target: kinases (Homo sapiens, UniProt Q9NRA0); details: SPHK2 FRET-Adapta SP; Test Conc(μM):ATP Conc(μM) 1:10
kinases [26] = target: kinases (Homo sapiens, UniProt Q9UBE8); details: NLK FRET-Lantha SP; Test Conc(μM) 1
kinases [27] = target: kinases (Homo sapiens, UniProt Q9UBF8); details: PI4KB FRET-Adapta SP; Test Conc(μM):ATP Conc(μM) 1:5
kinases [28] = target: kinases (Homo sapiens, UniProt Q9Y463); details: DYRK1B FRET-Z-Lyte SP; Test Conc(μM):ATP Conc(μM) 1:75

kinases (Homo sapiens, UniProt Q9H0K1), sequence (Q9H0K1 whole entry): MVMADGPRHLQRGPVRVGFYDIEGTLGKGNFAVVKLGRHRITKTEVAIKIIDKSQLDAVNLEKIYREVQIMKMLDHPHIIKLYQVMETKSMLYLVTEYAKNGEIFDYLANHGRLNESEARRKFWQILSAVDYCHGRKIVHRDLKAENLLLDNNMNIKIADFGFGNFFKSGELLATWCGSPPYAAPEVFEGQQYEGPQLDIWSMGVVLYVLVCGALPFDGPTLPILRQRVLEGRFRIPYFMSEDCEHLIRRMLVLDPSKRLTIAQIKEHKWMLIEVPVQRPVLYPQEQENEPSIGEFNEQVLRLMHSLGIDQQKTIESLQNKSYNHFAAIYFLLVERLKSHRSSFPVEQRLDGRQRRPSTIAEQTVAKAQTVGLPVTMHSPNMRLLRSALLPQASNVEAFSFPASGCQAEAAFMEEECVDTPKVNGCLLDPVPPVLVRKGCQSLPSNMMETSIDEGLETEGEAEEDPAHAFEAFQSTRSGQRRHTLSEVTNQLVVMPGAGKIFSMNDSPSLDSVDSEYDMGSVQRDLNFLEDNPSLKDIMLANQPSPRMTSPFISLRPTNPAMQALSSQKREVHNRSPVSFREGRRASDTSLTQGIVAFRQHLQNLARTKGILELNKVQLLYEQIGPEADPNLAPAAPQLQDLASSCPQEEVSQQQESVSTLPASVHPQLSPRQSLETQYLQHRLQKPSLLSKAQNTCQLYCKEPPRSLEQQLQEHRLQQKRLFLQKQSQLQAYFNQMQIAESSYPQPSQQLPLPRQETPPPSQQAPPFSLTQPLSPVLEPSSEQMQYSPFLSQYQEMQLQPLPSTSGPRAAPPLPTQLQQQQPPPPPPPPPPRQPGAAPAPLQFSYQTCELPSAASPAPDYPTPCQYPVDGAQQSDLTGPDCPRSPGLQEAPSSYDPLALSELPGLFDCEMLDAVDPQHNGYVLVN
kinases (Homo sapiens, UniProt Q56UN5), sequence (Q56UN5 whole entry): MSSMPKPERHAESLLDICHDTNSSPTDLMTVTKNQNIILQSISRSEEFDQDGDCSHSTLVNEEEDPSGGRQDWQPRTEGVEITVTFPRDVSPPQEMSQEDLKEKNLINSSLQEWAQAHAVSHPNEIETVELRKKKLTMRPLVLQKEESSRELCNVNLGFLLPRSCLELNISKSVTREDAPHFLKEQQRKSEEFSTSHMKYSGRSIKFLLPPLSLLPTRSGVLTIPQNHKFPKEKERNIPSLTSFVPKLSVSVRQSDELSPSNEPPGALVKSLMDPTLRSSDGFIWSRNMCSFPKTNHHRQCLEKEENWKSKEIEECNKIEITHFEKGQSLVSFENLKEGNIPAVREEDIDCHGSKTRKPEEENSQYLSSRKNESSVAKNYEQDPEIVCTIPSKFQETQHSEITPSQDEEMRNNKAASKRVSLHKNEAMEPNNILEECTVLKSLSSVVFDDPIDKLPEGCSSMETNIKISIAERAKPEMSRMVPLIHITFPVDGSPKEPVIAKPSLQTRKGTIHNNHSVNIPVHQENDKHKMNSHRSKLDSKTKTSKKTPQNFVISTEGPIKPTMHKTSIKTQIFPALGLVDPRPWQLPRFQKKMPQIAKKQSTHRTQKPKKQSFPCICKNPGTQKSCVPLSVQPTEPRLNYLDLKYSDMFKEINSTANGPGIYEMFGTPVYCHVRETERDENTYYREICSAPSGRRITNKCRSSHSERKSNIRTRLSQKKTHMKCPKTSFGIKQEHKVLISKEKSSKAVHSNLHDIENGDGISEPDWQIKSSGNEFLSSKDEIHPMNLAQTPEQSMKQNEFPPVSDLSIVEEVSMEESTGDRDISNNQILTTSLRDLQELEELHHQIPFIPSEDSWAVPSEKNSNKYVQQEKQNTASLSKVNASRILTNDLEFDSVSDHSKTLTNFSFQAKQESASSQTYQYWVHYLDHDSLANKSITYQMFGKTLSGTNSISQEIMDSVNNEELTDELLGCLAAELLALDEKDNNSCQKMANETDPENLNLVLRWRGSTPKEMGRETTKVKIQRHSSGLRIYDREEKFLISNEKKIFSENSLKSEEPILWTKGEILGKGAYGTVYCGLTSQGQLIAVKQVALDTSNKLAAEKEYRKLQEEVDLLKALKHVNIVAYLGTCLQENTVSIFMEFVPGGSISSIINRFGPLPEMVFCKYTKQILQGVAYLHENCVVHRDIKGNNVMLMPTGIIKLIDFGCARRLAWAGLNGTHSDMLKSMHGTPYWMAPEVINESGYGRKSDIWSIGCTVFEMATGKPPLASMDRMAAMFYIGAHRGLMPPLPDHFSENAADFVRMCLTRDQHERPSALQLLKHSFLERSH
kinases (Homo sapiens, UniProt Q9H4B4), sequence (Q9H4B4 whole entry): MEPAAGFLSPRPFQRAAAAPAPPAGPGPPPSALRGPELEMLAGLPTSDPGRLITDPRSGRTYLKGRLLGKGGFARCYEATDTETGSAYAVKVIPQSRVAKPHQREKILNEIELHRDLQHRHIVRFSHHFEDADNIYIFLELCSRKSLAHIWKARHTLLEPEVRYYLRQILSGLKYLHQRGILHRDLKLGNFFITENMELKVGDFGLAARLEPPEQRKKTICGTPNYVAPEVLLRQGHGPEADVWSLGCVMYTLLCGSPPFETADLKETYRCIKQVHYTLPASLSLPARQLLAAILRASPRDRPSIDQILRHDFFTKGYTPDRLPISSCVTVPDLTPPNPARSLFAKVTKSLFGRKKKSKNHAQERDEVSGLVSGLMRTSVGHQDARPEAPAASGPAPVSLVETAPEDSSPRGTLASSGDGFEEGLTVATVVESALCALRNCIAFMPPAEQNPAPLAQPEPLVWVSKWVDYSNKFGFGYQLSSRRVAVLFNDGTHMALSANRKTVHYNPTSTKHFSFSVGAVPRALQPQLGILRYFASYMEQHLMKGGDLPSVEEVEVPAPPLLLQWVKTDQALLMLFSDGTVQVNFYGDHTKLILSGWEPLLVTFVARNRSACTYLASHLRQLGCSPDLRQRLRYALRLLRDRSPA
kinases (Homo sapiens, UniProt Q7KZI7), sequence (Q7KZI7 whole entry): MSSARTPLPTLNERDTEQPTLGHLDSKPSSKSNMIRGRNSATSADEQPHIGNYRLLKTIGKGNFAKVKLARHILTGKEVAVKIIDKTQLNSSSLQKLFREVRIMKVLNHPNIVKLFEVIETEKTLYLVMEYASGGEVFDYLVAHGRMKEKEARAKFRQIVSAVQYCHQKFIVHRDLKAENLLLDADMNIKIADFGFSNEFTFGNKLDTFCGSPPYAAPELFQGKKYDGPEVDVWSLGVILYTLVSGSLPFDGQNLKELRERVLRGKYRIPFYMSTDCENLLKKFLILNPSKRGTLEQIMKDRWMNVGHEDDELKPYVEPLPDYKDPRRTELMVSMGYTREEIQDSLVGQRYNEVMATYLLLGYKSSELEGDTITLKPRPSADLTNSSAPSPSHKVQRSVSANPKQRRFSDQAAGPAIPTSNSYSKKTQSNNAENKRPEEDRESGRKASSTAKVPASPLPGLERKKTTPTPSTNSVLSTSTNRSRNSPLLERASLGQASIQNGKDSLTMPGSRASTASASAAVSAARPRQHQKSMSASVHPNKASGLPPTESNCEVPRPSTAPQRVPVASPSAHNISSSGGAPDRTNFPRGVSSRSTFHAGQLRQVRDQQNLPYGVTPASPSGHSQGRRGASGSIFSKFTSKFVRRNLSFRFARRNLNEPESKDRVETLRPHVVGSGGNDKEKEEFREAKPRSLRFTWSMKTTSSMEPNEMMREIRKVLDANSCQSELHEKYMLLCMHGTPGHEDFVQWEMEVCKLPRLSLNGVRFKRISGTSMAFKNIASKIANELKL
kinases (Homo sapiens, UniProt Q52WX2), sequence (Q52WX2 whole entry): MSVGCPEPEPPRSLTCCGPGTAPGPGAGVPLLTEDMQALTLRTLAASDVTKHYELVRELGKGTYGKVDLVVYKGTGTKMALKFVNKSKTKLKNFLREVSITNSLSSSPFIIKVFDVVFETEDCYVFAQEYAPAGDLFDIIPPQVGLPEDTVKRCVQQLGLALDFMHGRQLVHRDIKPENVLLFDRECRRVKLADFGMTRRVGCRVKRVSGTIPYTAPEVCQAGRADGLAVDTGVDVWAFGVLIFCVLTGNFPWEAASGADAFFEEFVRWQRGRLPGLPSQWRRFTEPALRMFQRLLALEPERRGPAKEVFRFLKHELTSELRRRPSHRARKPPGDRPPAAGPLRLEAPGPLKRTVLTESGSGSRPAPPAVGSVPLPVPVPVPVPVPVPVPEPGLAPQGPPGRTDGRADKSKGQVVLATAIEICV
kinases (Homo sapiens, UniProt P48426), sequence (P48426 whole entry): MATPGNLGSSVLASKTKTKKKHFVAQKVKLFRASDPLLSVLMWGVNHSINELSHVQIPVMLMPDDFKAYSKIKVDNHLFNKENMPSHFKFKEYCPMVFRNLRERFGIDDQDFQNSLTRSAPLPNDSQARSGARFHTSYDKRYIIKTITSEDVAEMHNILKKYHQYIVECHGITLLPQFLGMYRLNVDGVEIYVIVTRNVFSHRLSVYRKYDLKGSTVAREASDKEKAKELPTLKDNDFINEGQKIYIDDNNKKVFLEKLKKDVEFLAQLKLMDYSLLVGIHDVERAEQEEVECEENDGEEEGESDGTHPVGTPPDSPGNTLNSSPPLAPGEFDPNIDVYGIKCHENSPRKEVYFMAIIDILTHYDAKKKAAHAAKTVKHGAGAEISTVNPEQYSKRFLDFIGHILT
kinases (Homo sapiens, UniProt P06239), sequence (P06239 whole entry): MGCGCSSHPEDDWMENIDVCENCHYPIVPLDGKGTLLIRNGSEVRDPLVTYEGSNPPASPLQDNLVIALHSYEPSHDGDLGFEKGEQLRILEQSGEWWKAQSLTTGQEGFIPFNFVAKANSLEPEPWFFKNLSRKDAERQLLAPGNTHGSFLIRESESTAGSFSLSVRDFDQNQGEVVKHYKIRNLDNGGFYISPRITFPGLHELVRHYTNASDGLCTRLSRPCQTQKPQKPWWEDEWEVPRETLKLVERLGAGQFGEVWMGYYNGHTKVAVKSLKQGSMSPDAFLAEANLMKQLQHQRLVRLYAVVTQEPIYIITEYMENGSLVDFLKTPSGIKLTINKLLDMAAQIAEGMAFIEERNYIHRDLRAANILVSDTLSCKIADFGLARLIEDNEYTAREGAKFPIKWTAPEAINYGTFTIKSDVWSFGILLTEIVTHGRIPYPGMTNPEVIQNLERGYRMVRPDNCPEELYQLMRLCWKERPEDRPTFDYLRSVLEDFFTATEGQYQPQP

| SMILES | Mean Inhib (%) (kinases [1]) | Mean Inhib (%) (kinases [2]) | Mean Inhib (%) (kinases [3]) | Mean Inhib (%) (kinases [4]) | Mean Inhib (%) (kinases [5]) | Mean Inhib (%) (kinases [6]) | Mean Inhib (%) (kinases [7]) | Mean Inhib (%) (kinases [8]) | Mean Inhib (%) (kinases [9]) | Mean Inhib (%) (kinases [10]) | Mean Inhib (%) (kinases [11]) | Mean Inhib (%) (kinases [12]) | Mean Inhib (%) (kinases [13]) | Mean Inhib (%) (kinases [14]) | Mean Inhib (%) (kinases [15]) | Mean Inhib (%) (kinases [16]) | Mean Inhib (%) (kinases [17]) | Mean Inhib (%) (kinases [18]) | Mean Inhib (%) (kinases [19]) | Mean Inhib (%) (kinases [20]) | other results |
| --- | --- | --- | --- | --- | --- | --- | --- | --- | --- | --- | --- | --- | --- | --- | --- | --- | --- | --- | --- | --- | --- |
| Cc1ccc(NC(=O)c2ccnc(N3CCOCC3)c2)cc1Nc1ccnc(N2CC(C)OC(C)C2)n1 (centres unmarked) [compound 3] | 0.2 | 3.6 | 2.7 | −4.1 | 0.4 | 8.9 | 4.8 | 0.7 | 2.2 | −2.3 | 1.4 | 6.9 | −4.4 | 82.4 | 6.9 | 9.0 | 3.3 | −1.6 | 7.4 | −6.0 | Mean Inhib (%) (kinases [21]): −9.5%; Mean Inhib (%) (kinases [22]): 0.2%; Mean Inhib (%) (kinases [23]): 15.9%; Mean Inhib (%) (kinases [24]): 5.8%; Mean Inhib (%) (kinases [25]): −9.4%; Mean Inhib (%) (kinases [26]): −3.5%; Mean Inhib (%) (kinases [27]): −9.0%; Mean Inhib (%) (kinases [28]): 3.0% |
| Cc1cc(Oc2ccnc(Nc3ccc(S(N)(=O)=O)cc3)c2)c(-c2ccccn2)nc1C [compound 65] | 6.1 | 8.1 | 10.1 | 39.7 | 2.5 | 4.7 | 27.9 | −8.8 | −8.6 | −2.2 | −2.6 | 47.0 | −7.9 | 1.7 | 1.1 | 0.2 | −6.2 | −3.1 | 3.8 | 33.0 | Mean Inhib (%) (kinases [21]): −7.5%; Mean Inhib (%) (kinases [22]): 1.4%; Mean Inhib (%) (kinases [23]): 10.7%; Mean Inhib (%) (kinases [24]): −4.9%; Mean Inhib (%) (kinases [25]): −1.2%; Mean Inhib (%) (kinases [26]): 88.8%; Mean Inhib (%) (kinases [27]): 0.5%; Mean Inhib (%) (kinases [28]): −5.0% |

Source: patent US20220187282A1, “CARDIOMYOCYTE PROLIFERATION” (The Council of the Queensland Institute of Medical Research, priority 2019, published 2022)
